# Measured values published in patent publication US8067445B2, “N,N-disubstituted aminoalkylbiphenyl antagonists of prostaglandin D2 receptors” (Panmira Pharmaceuticals, LLC, priority 2008, dated 2011).
# Biological target: T1, human DP2 receptor (Homo sapiens, UniProt Q9Y5Y4)
# T1 construct: expressed in transfected cells
# T1 sequence (Q9Y5Y4 1-395): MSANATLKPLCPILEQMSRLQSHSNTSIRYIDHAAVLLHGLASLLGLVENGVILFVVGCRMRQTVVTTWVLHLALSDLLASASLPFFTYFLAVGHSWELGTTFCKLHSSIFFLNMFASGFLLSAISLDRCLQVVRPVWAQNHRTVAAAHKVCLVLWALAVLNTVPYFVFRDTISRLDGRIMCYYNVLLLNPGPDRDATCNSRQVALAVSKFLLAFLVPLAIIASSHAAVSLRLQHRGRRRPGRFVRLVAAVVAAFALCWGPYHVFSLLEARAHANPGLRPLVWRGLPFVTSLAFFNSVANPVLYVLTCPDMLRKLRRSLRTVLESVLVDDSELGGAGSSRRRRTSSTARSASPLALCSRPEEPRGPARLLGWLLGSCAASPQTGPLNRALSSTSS
# Assay: DP2/CRTH2 radioligand binding assay ([3H]PGD2)
# Settings: [3H]PGD2 binding, membranes of HEK293 cells expressing human DP2; read-out: hDP2
# Experimental: The ability of a compound to bind to the human DP2 receptor is assessed via a radioligand binding assay using [^3H]PGD2. HEK293 cells stably expressing recombinant human DP2 are resuspended in 10 mM Hepes, 7.4 containing 1 mM DTT, lysed and centrifuged at 75,000×g to pellet the membranes. The membranes are resuspended in 10 mM Hepes, 7.4 containing 1 mM DTT and 10% glycerol to approximately 5 mg protein/ml. Membranes (2-10 μg protein/well) are incubated in 96-well plates with 1 nM [^3H]PGD2 and test compound in Assay Buffer (50 mM Hepes, 10 mM MnCl2, 1 mM EDTA, plus or minus 0.2% human serum albumin, pH 7.4) for 60 minutes at room temperature. The reactions are terminated by rapid filtration through Whatman GF/C glass fibre filter plates. The filter plates were pre-soaked in 0.33% polyethylenimine for 30 minutes at room temperature then washed in Wash Buffer (50 mM Hepes, 0.5 M NaCl pH 7.4) prior to harvesting. After harvesting, the filter plates are washed 3 times with 1 ml cold Wash Buffer then dried. Scintillant is then added to the plates and the radioactivity retained on the filters is determined on a Packard TopCount (Perkin Elmer). Specific binding is determined as total radioactive binding minus non-specific binding in the presence of 10 μM PGD2. IC50s were determined using GraphPad prism analysis of drug titration curves.
row,Compound,IC50
1,"CCN(Cc1cc(C(F)(F)F)ccc1-c1cc(CC(=O)O)ccc1OC)C(=O)c1ccccc1 [Compound 1-80, {2′-[(Benzoyl-ethyl-amino)-methyl]-6-methoxy-4′-trifluoromethyl-biphenyl-3-yl}-acetic acid]",< 300 nM
2,"CCN(Cc1cc(C(F)(F)F)ccc1-c1cc(Cl)cc(CC(=O)O)c1)C(=O)OCc1ccc(Cl)cc1 [Compound 1-188, (5-Chloro-2′-{[(4-chloro-benzyloxycarbonyl)-ethyl-amino]-methyl}-4′-trifluoromethyl-biphenyl-3-yl)-acetic acid]",< 300 nM
3,"CCN(Cc1cc(C(F)(F)F)ccc1-c1cc(CC(=O)O)cc(C(F)(F)F)c1)C(=O)OCc1ccc(Cl)cc1 [Compound 1-189, (2′-{[(4-Chloro-benzyloxycarbonyl)-ethyl-amino]-methyl}-5,4′-bis-trifluoromethyl-biphenyl-3-yl)-acetic acid]",< 300 nM
4,"CCN(Cc1cc(C(F)(F)F)ccc1-c1cc(Cl)cc(CC(=O)O)c1)C(=O)OCc1ccc(F)cc1 [Compound 1-190, (5-Chloro-2′-{[ethyl-(4-fluoro-benzyloxycarbonyl)-amino]-methyl}-4′-trifluoromethyl-biphenyl-3-yl)-acetic acid]",< 300 nM
5,"CCN(Cc1cc(C(F)(F)F)ccc1-c1cc(CC(=O)O)cc(C(F)(F)F)c1)C(=O)OCc1ccc(F)cc1 [Compound 1-191, (2′-{[Ethyl-(4-fluoro-benzyloxycarbonyl)-amino]-methyl}-5,4′-bis-trifluoromethyl-biphenyl-3-yl)-acetic acid]",< 300 nM
6,"CCN(Cc1cc(C(F)(F)F)ccc1-c1cc(Cl)cc(CC(=O)O)c1)C(=O)NCc1ccc(Cl)cc1 [Compound 1-192, {5-Chloro-2′-[3-(4-chloro-benzyl)-1-ethyl-ureidomethyl]-4′-trifluoromethyl-biphenyl-3-yl}-acetic acid]",< 300 nM
7,"CCN(Cc1cc(C(F)(F)F)ccc1-c1cc(CC(=O)O)cc(C(F)(F)F)c1)C(=O)NCc1ccc(Cl)cc1 [Compound 1-193, {2′-[3-(4-Chloro-benzyl)-1-ethyl-ureidomethyl]-5,4′-bis-trifluoromethyl-biphenyl-3-yl}-acetic acid]",< 300 nM
8,"CCN(Cc1ccc(OC)cc1-c1cc(CC(=O)O)ccc1OC)C(=O)OCc1ccc(F)cc1 [Compound 1-194, (2′-{[Ethyl-(4-fluoro-benzyloxycarbonyl)-amino]-methyl}-6,5′-dimethoxy-biphenyl-3-yl)-acetic acid]",< 300 nM
9,"CCN(Cc1ccc(OC)cc1-c1cc(CC(=O)O)ccc1OC)C(=O)OCc1ccc(Cl)cc1 [Compound 1-195, (2′-{[(4-Chloro-benzyloxycarbonyl)-ethyl-amino]-methyl}-6,5′-dimethoxy-biphenyl-3-yl)-acetic acid]",< 300 nM
10,"CCN(Cc1ccc(OC)cc1-c1cc(CC(=O)O)ccc1OC)C(=O)C1CC1 [Compound 1-196, {2′-[(Cyclopropanecarbonyl-ethyl-amino)-methyl]-6,5′-dimethoxy-biphenyl-3-yl}-acetic acid]",< 300 nM
11,"CCN(Cc1ccc(OC)cc1-c1cc(CC(=O)O)ccc1OC)C(=O)NCc1ccccc1 [Compound 1-197, [2′-(3-Benzyl-1-ethyl-ureidomethyl)-6,5′-dimethoxy-biphenyl-3-yl]-acetic acid]",< 300 nM
12,CCN(Cc1cc(C(F)(F)F)ccc1-c1cc(CC(=O)O)ccc1OC)C(=O)NCc1cccnc1 [Compound 1-198],< 300 nM

# Next, values leading:
row,IC50,Compound
1,< 300 nM,"CCN(Cc1cc(C(F)(F)F)ccc1-c1cc(CC(=O)O)ccc1OC)C(=O)NCc1ccncc1 [Compound 1-199, [2′-(1-Ethyl-3-pyridin-4-ylmethyl-ureidomethyl)-6-methoxy-4′-trifluoromethyl-biphenyl-3-yl]-acetic acid]"
2,< 300 nM,"CCN(Cc1cc(C(F)(F)F)ccc1-c1cc(CC(=O)O)ccc1OC)C(=O)NCc1ccc(Cl)nc1 [Compound 1-200, {2′-[3-(6-Chloro-pyridin-3-ylmethyl)-1-ethyl-ureidomethyl]-6-methoxy-4′-trifluoromethyl-biphenyl-3-yl}-acetic acid]"
3,< 300 nM,"CCN(Cc1cc(C(F)(F)F)ccc1-c1cc(Cl)cc(CC(=O)O)c1)C(=O)NC [Compound 1-201, [5-Chloro-2′-(1-ethyl-3-methyl-ureidomethyl)-4′-trifluoromethyl-biphenyl-3-yl]-acetic acid]"
4,< 300 nM,"CCN(Cc1cc(C(F)(F)F)ccc1-c1cc(CC(=O)O)cc(C(F)(F)F)c1)C(=O)NC [Compound 1-202, [2′-(1-Ethyl-3-methyl-ureidomethyl)-5,4′-bis-trifluoromethyl-biphenyl-3-yl]-acetic acid]"
5,< 300 nM,"CCN(Cc1cc(C(F)(F)F)ccc1-c1cc(Cl)cc(CC(=O)O)c1)C(=O)c1ccccc1 [Compound 1-203, {2′-[(Benzoyl-ethyl-amino)-methyl]-5-chloro-4′-trifluoromethyl-biphenyl-3-yl}-acetic acid]"
6,< 300 nM,"CCN(Cc1cc(C(F)(F)F)ccc1-c1cc(CC(=O)O)cc(C(F)(F)F)c1)C(=O)c1ccccc1 [Compound 1-204, {2′-[(Benzoyl-ethyl-amino)-methyl]-5,4′-bis-trifluoromethyl-biphenyl-3-yl}-acetic acid]"
7,< 300 nM,"CCN(Cc1cc(C(F)(F)F)ccc1-c1cc(CC(=O)O)ccc1OC)C(=O)Cc1ccccc1 [Compound 1-207, {2′-[(Ethyl-phenylacetyl-amino)-methyl]-6-methoxy-4′-trifluoromethyl-biphenyl-3-yl}-acetic acid]"
8,< 300 nM,"CCN(Cc1cc(C(F)(F)F)ccc1-c1cc(CC(=O)O)ccc1OC)C(=O)CCc1ccccc1 [Compound 1-208, (2′-{[Ethyl-(3-phenyl-propionyl)-amino]-methyl}-6-methoxy-4′-trifluoromethyl-biphenyl-3-yl)-acetic acid]"
9,< 300 nM,"CCN(Cc1cc(C(F)(F)F)ccc1-c1cc(CC(=O)O)ccc1OC)C(=O)C1(O)CC1 [Compound 1-209, (2′-{[Ethyl-(1-hydroxy-cyclopropanecarbonyl)-amino]-methyl}-6-methoxy-4′-trifluoromethyl-biphenyl-3-yl)-acetic acid]"
10,< 300 nM,"CCN(Cc1cc(C(F)(F)F)ccc1-c1cc(CC(=O)O)ccc1OC)C(N)=O [Compound 1-210, {2′-[(1-Ethyl-ureido)-methyl]-6-methoxy-4′-trifluoromethyl-biphenyl-3-yl}-acetic acid]"
11,< 300 nM,"CCN(Cc1cc(C(F)(F)F)ccc1-c1cc(Cl)cc(C(C)C(=O)O)c1)C(C)=O (stereo not drawn) [Compound 1-211, 2-{2′-[(Acetyl-ethyl-amino)-methyl]-5-chloro-4′-trifluoromethyl-biphenyl-3-yl}-propionic acid]"
12,< 300 nM,"CCN(Cc1cc(C(F)(F)F)ccc1-c1cc(Cl)cc(C(C)C(=O)O)c1)C(=O)C1CC1 (stereo not drawn) [Compound 1-212, 2-{5-Chloro-2′-[(cyclopropanecarbonyl-ethyl-amino)-methyl]-4′-trifluoromethyl-biphenyl-3-yl}-propionic acid]"
13,< 300 nM,"CCN(Cc1cc(C(F)(F)F)ccc1-c1cc(C(C)C(=O)O)cc(C(F)(F)F)c1)C(C)=O (stereo not drawn) [Compound 1-213, 2-{2′-[(Acetyl-ethyl-amino)-methyl]-5,4′-bis-trifluoromethyl-biphenyl-3-yl}-propionic acid]"
14,< 300 nM,"CCN(Cc1cc(C(F)(F)F)ccc1-c1cc(C(C)C(=O)O)cc(C(F)(F)F)c1)C(=O)C1CC1 (stereo not drawn) [Compound 1-214, 2-{2′-[(Cyclopropanecarbonyl-ethyl-amino)-methyl]-5,4′-bis-trifluoromethyl-biphenyl-3-yl}-propionic acid]"
15,< 300 nM,"CCN(Cc1cc(C(F)(F)F)ccc1-c1cc(C(C)C(=O)O)ccc1OC)C(=O)C1CC1 (stereo not drawn) [Compound 1-217, 2-{2′-[(Cyclopropanecarbonyl-ethyl-amino)-methyl]-6-methoxy-4′-trifluoromethyl-biphenyl-3-yl}-propionic acid]"
16,< 300 nM,"CCN(Cc1ccc(OC)cc1-c1cc(Cl)cc(CC(=O)O)c1)C(=O)C1CC1 [Compound 1-218, {5-Chloro-2′-[(cyclopropanecarbonyl-ethyl-amino)-methyl]-5′-methoxy-biphenyl-3-yl}-acetic acid]"
17,< 300 nM,"CCN(Cc1ccc(OC)cc1-c1cc(Cl)cc(CC(=O)O)c1)C(=O)NCc1ccccc1 [Compound 1-219, [2′-(3-Benzyl-1-ethyl-ureidomethyl)-5-chloro-5′-methoxy-biphenyl-3-yl]-acetic acid]"
18,< 300 nM,"CCN(Cc1ccc(OC)cc1-c1cc(Cl)cc(CC(=O)O)c1)C(=O)COc1ccc(Cl)cc1 [Compound 1-221, [5-Chloro-2′-({[2-(4-chloro-phenoxy)-acetyl]-ethyl-amino}-methyl)-5′-methoxy-biphenyl-3-yl]-acetic acid]"
